Data published in ChEMBL document CHEMBL1201862, “PubChem BioAssay data set” (2004).
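Following 48 hours of exposure in 96-well plates, responses at five concentrations were used to interpolate endpoints linearly. GI50 = concentration required for 50% inhibition of growth.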 Activity calls are given as the source filed them. No stated cut-off is given here; in the data, active = GI50 up to about 1.1 µM and inactive = higher. Where a SMILES comes first, the peptide text is derived from it. [ ]: non-standard residue; d: D form. pGlu = O=C1CC[CH](C(=O)O)N1

How the values were obtained:
Experiment in all cases: inhibition of tumour cell growth, NCI panel, 48 h
OVCAR-8 = test system: OVCAR-8
HOP-62 = test system: HOP-62
SF-268 = test system: SF-268
HT-29 = test system: HT-29
LOX IMVI = test system: LOX IMVI
SK-MEL-28 = test system: SK-MEL-28
A498 = test system: A498
SNB-19 = test system: SNB-19
MDA-N = test system: MDA-N
MCF7 = test system: MCF7
Hs-578T = test system: Hs-578T
NCI-H226 = test system: NCI-H226
HCT-116 = test system: HCT-116
MDA-MB-435 = test system: MDA-MB-435
DU-145 = test system: DU-145
RPMI-8226 = test system: RPMI-8226
TK-10 = test system: TK-10
IGROV-1 = test system: IGROV-1
SF-539 = test system: SF-539
SK-MEL-2 = test system: SK-MEL-2

Row | SMILES | GI50 (OVCAR-8) | GI50 (HOP-62) | GI50 (SF-268) | GI50 (HT-29) | GI50 (LOX IMVI) | GI50 (SK-MEL-28) | GI50 (A498) | GI50 (SNB-19) | GI50 (MDA-N) | GI50 (MCF7) | GI50 (Hs-578T) | GI50 (NCI-H226) | GI50 (HCT-116) | GI50 (MDA-MB-435) | GI50 (DU-145) | GI50 (RPMI-8226) | GI50 (TK-10) | GI50 (IGROV-1) | GI50 (SF-539) | GI50 (SK-MEL-2)
1 | CC(NC(=O)C1CCC(=O)N1)C(=O)N1CCCC1C(N)=O (stereo not drawn) ([pGlu]-Ala-Pro-NH2; configuration not given here) | > 100 µM (inactive) | > 100 µM (inactive) | > 100 µM (inactive) | > 100 µM (inactive) | > 100 µM (inactive) | > 100 µM (inactive) | 31.5 µM (inactive) | > 100 µM (inactive) | > 100 µM (inactive) | > 100 µM (inactive) | > 100 µM (inactive) | > 100 µM (inactive) | > 100 µM (inactive) | > 100 µM (inactive) | > 100 µM (inactive) | > 100 µM (inactive) | > 100 µM (inactive) | > 100 µM (inactive) |  | 
2 | NC(CCC(=O)NC(CSC(=O)N(O)c1ccc(Cl)cc1)C(=O)NCC(=O)O)C(=O)O (centres undefined) | > 0.5 µM (active) | > 0.5 µM (active) | > 0.5 µM (active) | > 0.5 µM (active) |  | > 0.5 µM (active) |  | > 0.5 µM (active) | > 0.5 µM (active) | > 0.5 µM (active) | > 0.5 µM (active) | > 0.5 µM (active) | > 0.5 µM (active) | > 0.5 µM (active) | > 0.5 µM (active) | > 0.5 µM (active) |  | > 0.5 µM (active) | > 0.5 µM (active) | > 0.5 µM (active)
3 | CN(C)C(=O)C1CCN(Cc2c[nH]c3ccccc23)CC1 | > 100 µM (inactive) | > 100 µM (inactive) | > 100 µM (inactive) | > 100 µM (inactive) | > 100 µM (inactive) | > 100 µM (inactive) | > 100 µM (inactive) | > 100 µM (inactive) | > 100 µM (inactive) | > 100 µM (inactive) | > 100 µM (inactive) | > 100 µM (inactive) | > 100 µM (inactive) | > 100 µM (inactive) | > 100 µM (inactive) | > 100 µM (inactive) | > 100 µM (inactive) | > 100 µM (inactive) |  | > 100 µM (inactive)
4 | CC(C)c1ccc2c(c1)/C(=C1/Nc3ccccc3C1=O)C(=O)N2 | 10.6 µM (inactive) | 4.57 µM (inactive) | 15.3 µM (inactive) | 26.8 µM (inactive) | > 100 µM (inactive) | > 100 µM (inactive) | 2.34 µM (inactive) | 13 µM (inactive) | 28.8 µM (inactive) | 0.0188 µM (active) | 7.64 µM (inactive) | 3.62 µM (inactive) | 11.3 µM (inactive) | 25.8 µM (inactive) | 15.2 µM (inactive) | 27.8 µM (inactive) | 5.01 µM (inactive) | 1.45 µM (inactive) |  | 14.3 µM (inactive)
5 | Cc1cc2[nH]c(=NS(=O)(=O)c3cc(C)c(Cl)cc3S)[nH]c2cc1C | 77.3 µM (inactive) | 23.1 µM (inactive) | 83.8 µM (inactive) | > 100 µM (inactive) | 28.9 µM (inactive) | > 100 µM (inactive) | > 100 µM (inactive) | 56.6 µM (inactive) | > 100 µM (inactive) | 60.8 µM (inactive) | > 100 µM (inactive) |  | 51.4 µM (inactive) | 65.5 µM (inactive) | > 100 µM (inactive) | 45.9 µM (inactive) | > 100 µM (inactive) | 96.4 µM (inactive) | 68.9 µM (inactive) | > 100 µM (inactive)
6 | CCCCCC(=O)CCCCCCCC(O)CC(=O)OCC (centres undefined) | > 100 µM (inactive) | > 100 µM (inactive) | > 100 µM (inactive) | > 100 µM (inactive) | > 100 µM (inactive) | > 100 µM (inactive) | > 100 µM (inactive) | > 100 µM (inactive) | > 100 µM (inactive) | > 100 µM (inactive) | > 100 µM (inactive) | > 100 µM (inactive) | > 100 µM (inactive) | > 100 µM (inactive) | > 100 µM (inactive) | > 100 µM (inactive) | > 100 µM (inactive) | > 100 µM (inactive) | > 100 µM (inactive) | 
7 | CSc1cc(Cl)c(C)cc1S(=O)(=O)NC(=O)NNc1ccc(F)c(Cl)c1 | > 100 µM (inactive) | > 100 µM (inactive) | > 100 µM (inactive) | > 100 µM (inactive) | > 100 µM (inactive) | > 100 µM (inactive) | > 100 µM (inactive) | > 100 µM (inactive) | > 100 µM (inactive) | > 100 µM (inactive) | > 100 µM (inactive) | > 100 µM (inactive) | > 100 µM (inactive) | > 100 µM (inactive) | > 100 µM (inactive) |  |  | > 100 µM (inactive) | > 100 µM (inactive) | > 100 µM (inactive)
8 | O=C1C=C(N2CCN(c3ncccn3)CC2)C(=O)c2c(O)ccc(O)c21 | > 100 µM (inactive) | 49.2 µM (inactive) | > 100 µM (inactive) | > 100 µM (inactive) | > 100 µM (inactive) | > 100 µM (inactive) | > 100 µM (inactive) | > 100 µM (inactive) | 14.5 µM (inactive) | > 100 µM (inactive) | 27.6 µM (inactive) | > 100 µM (inactive) | 73.1 µM (inactive) | 7.21 µM (inactive) | > 100 µM (inactive) |  | > 100 µM (inactive) | > 100 µM (inactive) | 21.6 µM (inactive) | 
9 | Cc1ccc([N+](=O)[O-])cc1S(=O)(=O)Nc1ccc(C2=NN(c3ccc([N+](=O)[O-])cc3[N+](=O)[O-])C(c3ccccc3O)C2)cc1 (centres undefined) | 38.4 µM (inactive) | 36.3 µM (inactive) | 35.6 µM (inactive) | 43.3 µM (inactive) | 42 µM (inactive) | 75.5 µM (inactive) |  | 47.1 µM (inactive) | 29.3 µM (inactive) | 27.9 µM (inactive) | 42.7 µM (inactive) | 36.6 µM (inactive) | 29 µM (inactive) | 39.4 µM (inactive) | 39.1 µM (inactive) | 49.1 µM (inactive) | 43.7 µM (inactive) | 26.4 µM (inactive) | 55.5 µM (inactive) | 20.7 µM (inactive)
10 | N#Cc1c2c(c(N3CCOCC3)n3c1nc1ccccc13)CCCC2 | 19.2 µM (inactive) |  | > 100 µM (inactive) | 16.4 µM (inactive) | 17.3 µM (inactive) | 23.5 µM (inactive) | 19 µM (inactive) | 16.6 µM (inactive) | 18.4 µM (inactive) | 26.2 µM (inactive) | > 100 µM (inactive) | 14 µM (inactive) | 13.9 µM (inactive) | 20.2 µM (inactive) | 19 µM (inactive) |  | 23.1 µM (inactive) | 16.6 µM (inactive) | 19.1 µM (inactive) | 16.5 µM (inactive)
11 | N#CC(NCCc1ccccc1)c1ccccc1 (centres undefined) | > 100 µM (inactive) | > 100 µM (inactive) | > 100 µM (inactive) | > 100 µM (inactive) | > 100 µM (inactive) | > 100 µM (inactive) |  | > 100 µM (inactive) | > 100 µM (inactive) | > 100 µM (inactive) | > 100 µM (inactive) | > 100 µM (inactive) | > 100 µM (inactive) | > 100 µM (inactive) | > 100 µM (inactive) | > 100 µM (inactive) | > 100 µM (inactive) | > 100 µM (inactive) | > 100 µM (inactive) | > 100 µM (inactive)
12 | COC(=O)C1=C(O)C(C(=O)OC)[C@@]2(O)[C@@H](C(=O)OC)C(c3ccc(OC(=O)/C(=C/c4ccc(Cl)cc4)c4ccc(Cl)cc4)cc3)C[C@@H]1[C@@H]2C(=O)OC (some centres undefined) | 41 µM (inactive) | > 100 µM (inactive) | 99.3 µM (inactive) | 38.5 µM (inactive) | 14.3 µM (inactive) | > 100 µM (inactive) | > 100 µM (inactive) | 61.9 µM (inactive) | 17.5 µM (inactive) | 20.6 µM (inactive) | > 100 µM (inactive) | 19.5 µM (inactive) | 11.3 µM (inactive) | 23.5 µM (inactive) | 39 µM (inactive) |  | 16.1 µM (inactive) | 20.2 µM (inactive) | 12.2 µM (inactive) | 14.3 µM (inactive)
13 | Brc1ccc(-c2nc(-c3ccc(Br)cc3)n(-c3ccccc3)n2)cc1 | > 100 µM (inactive) | > 100 µM (inactive) | > 100 µM (inactive) | 26.9 µM (inactive) | > 100 µM (inactive) | > 100 µM (inactive) | > 100 µM (inactive) | > 100 µM (inactive) | > 100 µM (inactive) | > 100 µM (inactive) | > 100 µM (inactive) | > 100 µM (inactive) | 38 µM (inactive) | 46.7 µM (inactive) | > 100 µM (inactive) |  | > 100 µM (inactive) | > 100 µM (inactive) | > 100 µM (inactive) | > 100 µM (inactive)
14 | CC(=O)O[C@H]1C(=O)[C@]2(C)[C@@H](OC(=O)OCC(O)CO)C[C@H]3OC[C@@]3(OC(C)=O)[C@H]2[C@H](OC(=O)c2ccccc2)[C@]2(O)C[C@H](OC(=O)[C@H](O)[C@@H](NC(=O)c3ccccc3)c3ccccc3)C(C)=C1C2(C)C (some centres undefined) [PACLITAXEL CERIBATE] | < 0.01 µM (active) | < 0.01 µM (active) | < 0.01 µM (active) | < 0.01 µM (active) | < 0.01 µM (active) | 14.5 µM (inactive) |  | < 0.01 µM (active) | < 0.01 µM (active) | < 0.01 µM (active) | < 0.01 µM (active) |  | < 0.01 µM (active) | < 0.01 µM (active) | < 0.01 µM (active) | < 0.01 µM (active) | 0.0875 µM (active) | < 0.01 µM (active) | < 0.01 µM (active) | < 0.01 µM (active)
